Among the data in ChEMBL document CHEMBL1152053, “Nonpeptide HIV protease inhibitors designed to replace a bound water” (Bioorg Med Chem Lett, 1993) are Ki values, retold here.

Some results are limits rather than exact numbers.

The assay addresses Human immunodeficiency virus type 1 protease (Human immunodeficiency virus 1, UniProt Q72874). Put plainly: Compound was evaluated for the inhibition of recombinant HIV-1 protease at 37 degrees C and pH of 6.
For `O=C1C[C@](CO)(Cc2ccccc2)C(O)[C@@](CO)(Cc2ccccc2)C1`, the Ki (usually the dissociation constant of the complex between target and ligand, obtained from inhibition or displacement) worked out at 62 µM.

For the compound `O[C@H]1C[C@H](Cc2ccccc2)[C@H](O)[C@@H](Cc2ccccc2)C1`, the Ki was over 2000 µM.

Turning to `OC[C@]1(Cc2ccccc2)C[C@H](O)C[C@](CO)(Cc2ccccc2)[C@@H]1O`, the Ki came to 830 µM.

`OC[C@]1(Cc2ccccc2)C[C@H](O)C[C@](CO)(Cc2ccccc2)[C@H]1O`: the Ki worked out at 48 µM.

Consider `OC1[C@@](O)(Cc2ccccc2)CCC[C@]1(O)Cc1ccccc1`, for which the Ki was over 2000 µM.

On to `[O-][S+]1C[C@](CO)(Cc2ccccc2)C(O)[C@@](CO)(Cc2ccccc2)C1` (stereo in doubt; (-)7), for which the inhibition constant (Ki) turned out to be 19 µM.

As for `O=C1C[C@](O)(Cc2ccccc2)C(O)[C@@](O)(Cc2ccccc2)C1`, the inhibition constant (Ki) is 10 µM.

Regarding `[O-][S+]1C[C@](CO)(Cc2ccccc2)C(O)[C@@](CO)(Cc2ccccc2)C1` (stereo in doubt; (+)7), the Ki is 7 µM.
